Where two headings read alike, the source gives them in different places.
Tests used:
Human Jurkat cells = assay: Velcade-induced apoptosis of Jurkat cells, CellTiter-Glo viability; assay type: cell-based
Protocol: Human Jurkat cells were seeded in 96-well plates (20000 cells per well). Different concentrations of the compounds were added one hour prior to Velcade treatment, followed by the addition of 50 nM Velcade. After incubation for 24 hours, cell viability was measured by CellTiter-Glo Luminescent Cell Viability Assay.
The rates of cell death were measured in triplicate or quadruplicate in a 96-well or 384-well plate by using SYTOX Green Nucleic Acid Stain (Invitrogen) or ToxiLight Non-destructive Cytotoxicity BioAssay Kit (Lonza). The intensity of luminescence was determined in an EnSpire Multimode Plate Reader (PerkinElmer). Cytotoxicity is expressed as percentages of cell death per well after deducting the background signal in non-induced cells and compared to that of the maximal cell death with 100% Lysis Reagent. The rates of cell viability were determined by using CellTiter-Glo Luminescent Cell Viability Assay (Promega) following the manufacturer's protocol and the results are expressed as percentages of luminescence intensity per well after deducting the background signal in blank well and compared to that of the viability in the non-treated wells. Concentration of drugs used for inducing or inhibiting cell death, mTNFα: 1 ng/ml; 5Z-7-Oxozeaenol: 0.5 μM; Velcade: 50 nM; Apt-1/ICCB-19/ICCB-19i/Nec-1s: 10 μM.

[1] = test system: cleaved caspase-3 in Jurkat cells; assay: Cleaved caspase-3 immunoblot in Velcade-treated cells; assay type: cell-based, human; conditions: FIG. 9a, 9b; Jurkat and SH-SY5Y cells, 10 μM, 12 h and 24 h
Protocol: The levels of cleaved caspase-3 were determined by immunoblotting.
Specifically, wild-type MEF cells were pretreated for 1 h with 10 uM of the specified compounds, followed by 2 h treatment with 0.5 uM 5z-7-oxozeaenol and 1 ng/mL TNFα. Cell lysates were prepared and immunoblotted for cleaved-caspase 3 (CC3). Wild-type Jurkat cells were also pretreated for 1 h with 10 uM of the specified compounds, followed by 12 h treatment with 50 nM Velcade. Cell lysates were prepared and immunoblotted for cleaved-caspase 3 (CC3).

mTOR = mTOR signalling immunoblotting in MEFs; assay type: cell-based, mouse; conditions: 10 μM
Excerpt: Cell lysates analyzed by immunoblotting using indicated antibodies.

Beclin 1 = assay: K63-linkage specific ubiquitination of Beclin 1 in MEFs; assay type: cell-based, mouse; conditions: 6 h
Excerpt: Anti-K63-linkage specific polyubiquitin antibody was used to conduct secondary immunoprecipitation. Samples were then immunoblotted with anti-Beclin 1 antibody to measure the K63-linkage specific ubiquitination of Beclin 1.

TRADD-N and TRAF2-C = molecular target: T1, TRADD-N and TRAF2-C (Homo sapiens, UniProt Q15628); assay: NanoBiT protein-protein interaction assay TRADD-N / TRAF2-C; assay type: cell-based
T1 construct: expression constructs encoding Flag-TRADD-N(1-179) and HA-TRADD-C(180-312); expressed in transfected cells; host or cells: HEK293T
Protocol: Mean ±s.d. from quadruplicates (n=4).
The Nano-Glo Live Cell assay kit (Promega) was used as follows: HEK293T cells were seeded at 7.5×10^3 cells per well in a white, clear-bottom 96-well plate 12 h before transfection (10 ng LgBiT-fused construct and 10 ng SmBiT-fused construct). After 24 h incubation, medium was removed and replaced with 100 μl Opti-MEM medium for 1 h at 37C. The Nano-Glo reagent was prepared as per manufacturer's instructions and added to each well immediately before the luminescence reading was taken. Luminescence was measured at 1 min intervals for 10 min on a plate reader and reported as relative light units (RLU). For quantitative comparison of LgBiT-SmBiT interactions, the peak values at the 2-3 min time point were used. Concentration of compounds used in NanoBiT assay: 10 μM (Apt-1, ICCB-19 or ICCB-19i).

MEFs, BV2 cells, BMDMs = assay: Inflammatory responses in cells stimulated with TNFα or PAMPs; assay type: cell-based; conditions: 10 μM
Protocol: The protein levels of iNOS and Cox2 were determined by immunoblotting.
TNFα production was determined by ELISA.
The cells were then treated with Apt-1 (10 μM) or Nec-1s (10 μM) for 1 h and MDP (10 μg/ml) was added to cells directly and treated for 8 h. TNFα production was determined by ELISA. Mean ±s.d. from technical triplicates (n=3), representative of 3 independent experiments.

[2] = test system: TRADD-N mutants (Y16A, F18A, I72A, R119A, G121A); assay: Thermal shift assay with His-TRADD-N mutants; assay type: binding, human
Protocol: To determine stability, purified proteins were made to a final concentration of […]. SYPRO Orange dye was added to the protein to make a final concentration of 2×. Compounds were added in the mix with a final concentration of 250 μM or as indicated and incubated at 4C for 1 h. The experiments were performed in 384-well plates specific for real-time PCR instrument with a total volume of 20 μl/well. The assay plate was covered with a sheet of optically clear adhesive to seal each well. The assay plate was centrifuged at 800×g for 2 min at 25C to collect solutions in the bottom of the well and remove bubbles. The assay plate was placed into the Applied Biosystems QuantStudio 6 Real-Time PCR System. The reaction was run from 25C, ramping up in increments of 0.05° C./s to a final temperature of 95C with fluorescence detection throughout the experiment to generate a dataset. Melting temperature of the protein (Tm) was determined by performing non-linear fitting of the dataset to a Boltzmann Sigmoidal curve in GraphPad Prism with the following equation: Y=Bottom+(Top-Bottom)/[1+exp(Tm-X/Slope)], where Y=fluorescence emission in arbitrary units; X=temperature; Bottom=baseline fluorescence at low temperature; Top=maximal fluorescence at top of the dataset; Slope=describes the steepness of the curve, with larger values denoting shallower curves.

[3] = FIG. 5b, Velcade 50 nM, 24 h, read-out: IC50 of inhibition of Velcade-induced apoptosis
[4] = Table 3, 50 nM Velcade, 24 hours, read-out: Jurkat Velcade IC50/μM

T1 sequence (Q15628 1-179): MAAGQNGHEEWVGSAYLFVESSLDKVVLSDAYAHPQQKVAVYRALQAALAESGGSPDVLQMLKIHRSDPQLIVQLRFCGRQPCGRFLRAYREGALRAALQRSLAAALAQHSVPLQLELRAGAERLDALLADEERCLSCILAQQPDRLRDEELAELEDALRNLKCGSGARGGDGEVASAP

IC50 (Human Jurkat cells; Table 1, 50 nM Velcade, 24 hours, read-out: Apoptosis of Jurkat cells induced by Velcade (IC50 μM)) [µM] | SMILES | IC50 (Human Jurkat cells; [3]) [µM] | IC50 (Human Jurkat cells; [4]) [µM] | cleavage of caspase-3 downstream of Velcade-induced proteasomal stress [1] | effect on mTOR (mTOR) | Beclin 1 K63 ubiquitination (Beclin 1) | direct binding of TRADD-N and TRAF2 (NanoBiT) (TRADD-N and TRAF2-C) | production of inflammatory target genes and inflammatory cytokines (MEFs, BV2 cells, BMDMs) | binding with recombinant TRADD-N mutants [2]
 | CN1CCN=C1SC(C(=O)NC1CCCCCC1)c1ccccc1 (stereo not drawn) [Compound 30] | ~1 | 0.799 | blocked | no effect on mTOR | dramatically enhanced | dose-dependently reduced | reduced production | reduced relative to WT
1.1 | O=C(CSC1=NCCN1)NC1CCCCCC1 [ICCB-19] | ~1 | 1.12 | blocked | no effect on mTOR | dramatically enhanced |  | reduced production | 

Reference: patent US20230219898A1, “COMPOUNDS AND METHODS FOR BLOCKING APOPTOSIS AND INDUCING AUTOPHAGY” (President and Fellows of Harvard College, priority 2020, published 2023)
